These results are taken from patent publication US4208424A, “Lipogenesis inhibition by certain esters of substituted benzodioxincarboxylic acids” (Shell Oil Company, priority 1979, dated 1980).

This assay has as its system lipogenesis in swine adipose tissue. Kind of assay: inhibition of lipogenesis (incorporation of radioactive glucose carbon into lipid) in swine adipose tissue slices. Type of assay: cell-based. Conditions: 100 micrograms per milliliter, 37° C., 2 hours, glucose-U^14 C, insulin, 5% DMSO, triplicate. The text has this: The manner in which they cause this effect is not known with certainty; it is believed that they interfere with the synthesis of fatty acids in the tissues. Their effectiveness for this purpose has been ascertained by immersing samples of swine adipose tissue in a liquid medium containing radioactive glucose and the test chemical for a period of time, then isolating the lipid from the treated tissue and determining the incorporation of the radioactive carbon into lipid by means of scintillation counting techniques. These tests were conducted in swine adipose tissues because in swine, the primary site of lipogenesis--i.e., fatty acid synthesis--appears to be adipose tissue.
Described in more detail, the tests were conducted according to the following general procedure:
150 milligrams of slices of swine adipose tissue were incubated at 37° C. for 2 hours with shaking in 3 milliliters of Krebs-Ringer bicarbonate solution containing one-half the normal calcium ion concentration, 60 micromoles of glucose, 0.5 micro-Curie of glucose-U^14 C, and 300 microunits of insulin, and 5% dimethyl sulfoxide (DMSO). The test compounds were added as a solution or suspension in DMSO and were present at a concentration of 100 micrograms per milliliter of the incubation mixture.
The incubation was terminated by addition of 0.25 milliliter of 1 N sulfuric acid. The resulting mixture was extracted with a total of 25 milliliters of chloroform/methanol (2:1 v/v). The extracts were washed according to Folch et al. (J. Biol. Chem. 226, 497-509, (1957)), air dried, and counted in a liquid scintillation counter with 15 m milliliters of counting fluid (two parts toluene containing 0.4% w/v New England Nuclear Omnifluor/1 part Triton X-100). The tests were conducted in triplicate and were accompanied by control tests in which all ingredients,proportions and conditions were the same except that no test compound was included. From the data obtained were calculated the percent inhibition of lipid synthesis by the test compounds in each case. The data obtained from the tests are set out in Table 1, as the percent inhibition of lipogenesis compared to the results obtained in the control tests wherein only the test compound was omitted.
Turning to “Ethyl 6(and 7)-bromo-2,3-dihydro-1,4-benzodioxin-2-carboxylate [Compound 4]”, the “Percent Inhibition (of lipogenesis compared to control tests)” value (“Percent Inhibition” for short) is 43%.

In the case of `CCOC(=O)C1COc2ccccc2O1` (stereo not shown) [Compound 1, Ethyl 2,3-dihydro-1,4-benzodioxin-2-carboxylate], the “Percent Inhibition” value is given as 22%.

Regarding `CCOC(=O)C1COc2cc(-c3ccccc3)ccc2O1` (stereo not shown) [Compound 7, Ethyl 2,3-dihydro-6-phenyl-1,4-benzodioxin-2-carboxylate], the “Percent Inhibition” value is listed as 21%.

As for `CCOC(=O)C1COc2ccc(-c3ccccc3)cc2O1` (stereo not shown) [Compound 8, Ethyl 2,3-dihydro-7-phenyl-1,4-benzodioxin-2-carboxylate], the “Percent Inhibition” value is 28%.

On to `CCOC(=O)C1COc2cc(C)c(C)cc2O1` (stereo not shown) [Compound 6, Ethyl 2,3-dihydro-6,7-dimethyl-1,4-benzodioxin-2-carboxylate], for which the “Percent Inhibition” value was determined as 29%.

In the case of “Ethyl 2,3-dihydro-6(and 7)-methyl-1,4-benzodioxin-2-carboxylate [Compound 2]”, the “Percent Inhibition” value was determined as 30%.

With “Ethyl 2,3-dihydro-6(and 7)-methoxy-1,4-benzodioxin-2-carboxylate [Compound 10]”, the “Percent Inhibition” value came out at 85%.

As to “Ethyl 2,3-dihydro-8(and 5)-methoxy-1,4-benzodioxin-2-carboxylate [Compound 5]”, the “Percent Inhibition” value was determined as 86%.

On to “Ethyl 2,3-dihydro-6(and 7)-fluoro-1,4-benzodioxin-2-carboxylate [Compound 3]”, for which the “Percent Inhibition” value was found to be 48%.

As for `CCOC(=O)C1COc2ccc(C(C)O)cc2O1` (stereo not shown) [Compound 9, Ethyl 2,3-dihydro-7-(1-hydroxyethyl)-1,4-benzodioxin-2-carboxylate], the “Percent Inhibition” value is 90%.
